Experimental data taken from US20110319392A1, “Thiazole Sulfonamide And Oxazole Sulfonamide Kinase Inhibitors” (priority 2009, published 2011).

Key:
[1] = molecular target: B-Raf (Homo sapiens, UniProt P15056); assay: B-Raf Accelerated MEK ATPase assay (BRAMA), Method A or B; format: biochemical
Method in brief: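 Activated Raf plus non-phosphorylated MEK drives MEK-mediated ATP hydrolysis; ADP formation coupled via pyruvate kinase/lactate dehydrogenase to NADH oxidation. Method A read kinetically; Method B used 150 nM final MEK and a single end-point read.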

[2] = test system: HN5 tumor cells; assay: Cell growth inhibition assay (CellTiter-Glo), HN5; format: cell-based, Human; settings: Homo sapiens, 72 h; 3 days incubation
Method in brief: (§1)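 Cells plated at 500 cells/well in their growth media, dosed next day with nine-step 1:3 compound dilutions (final DMSO 0.2%), then incubated 3 days at 37° C, 5% CO2. Total ATP read by CellTiter-Glo luminescence as a surrogate for cell number; IC50 interpolated from 4-parameter fit versus DMSO controls.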

[3] = test system: BT474 tumor cells; assay: Cell growth inhibition assay (CellTiter-Glo), BT474; format: cell-based, Human; settings: 3 days incubation
[4] = test system: Colo205 tumor cells; assay: Cell growth inhibition assay (CellTiter-Glo), Colo205; format: cell-based, Human; settings: 3 days incubation
Method in brief: as §1

[5] = test system: A375P F11s tumor cells; assay: Cell growth inhibition assay (CellTiter-Glo), A375P F11s; format: cell-based, Human; settings: Homo sapiens
Method in brief: as §1

[6] = Method B: final MEK 150 nM, single end point read

Chain of B-Raf (P15056 whole entry): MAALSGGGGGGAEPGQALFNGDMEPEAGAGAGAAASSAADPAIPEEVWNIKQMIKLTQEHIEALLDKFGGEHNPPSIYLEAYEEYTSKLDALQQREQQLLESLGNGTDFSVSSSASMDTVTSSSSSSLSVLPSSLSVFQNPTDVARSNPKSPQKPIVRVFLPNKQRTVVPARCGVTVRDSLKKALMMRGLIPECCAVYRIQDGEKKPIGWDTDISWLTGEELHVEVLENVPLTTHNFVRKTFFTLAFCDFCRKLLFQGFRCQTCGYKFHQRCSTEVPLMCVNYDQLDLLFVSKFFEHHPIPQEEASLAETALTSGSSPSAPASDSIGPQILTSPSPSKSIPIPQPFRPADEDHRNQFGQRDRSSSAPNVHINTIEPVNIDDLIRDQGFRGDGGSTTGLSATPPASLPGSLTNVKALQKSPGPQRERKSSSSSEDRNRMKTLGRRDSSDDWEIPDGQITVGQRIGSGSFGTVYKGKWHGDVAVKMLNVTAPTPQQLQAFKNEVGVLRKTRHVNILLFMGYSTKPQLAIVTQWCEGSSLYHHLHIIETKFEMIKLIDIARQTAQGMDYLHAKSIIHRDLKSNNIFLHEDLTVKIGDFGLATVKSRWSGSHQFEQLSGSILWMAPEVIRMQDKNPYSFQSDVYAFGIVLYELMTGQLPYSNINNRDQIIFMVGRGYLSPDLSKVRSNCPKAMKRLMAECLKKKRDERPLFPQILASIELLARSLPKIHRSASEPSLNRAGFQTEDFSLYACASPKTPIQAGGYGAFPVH

Compound | IC50 [1, 6] | IC50 [2] | IC50 ([3]; Homo sapiens, BT-474, 72 h) | IC50 ([4]; Homo sapiens, COLO 205, 72 h) | IC50 [5] | IC50 ([1]; Method A) | IC50 [3] | IC50 [4]
CCc1nc(-c2cccc(CNS(=O)(=O)c3ccccc3)c2)c(-c2ccnc(Nc3ccc(N4CCOCC4)c(F)c3)n2)s1 [Example 34] | < 100 nM | > 1000 nM | > 1000 nM | 100 to 1000 nM | 100 to 1000 nM | – | – | –
CC(=O)N1CCN(c2ccc(Nc3nccc(-c4sc(C(C)C)nc4-c4cccc(NS(=O)(=O)c5cn(C)cn5)c4)n3)cn2)CC1 [Example 36] | < 100 nM | > 1000 nM | > 1000 nM | 100 to 1000 nM | 100 to 1000 nM | – | – | –
CC(C)c1nc(-c2cccc(NS(=O)(=O)C3CCCCC3)c2)c(-c2ccnc(Nc3ccc(N4CCOCC4)c(F)c3)n2)s1 [Example 38] | 100 to 1000 nM | > 1000 nM | > 1000 nM | 100 to 1000 nM | 100 to 1000 nM | – | – | –
CC(=O)N1CCN(c2ccc(Nc3nccc(-c4sc(C(C)C)nc4-c4cccc(NS(=O)(=O)C5CCCCC5)c4)n3)cn2)CC1 [Example 39] | < 100 nM | > 1000 nM | > 1000 nM | 100 to 1000 nM | 100 to 1000 nM | – | – | –
Cc1nc(Cl)sc1S(=O)(=O)Nc1cccc(-c2nc(C(C)C)sc2-c2ccnc(Nc3ccc(N4CCOCC4)nc3)n2)c1 [Example 42] | < 100 nM | < 100 nM | > 1000 nM | < 100 nM | 100 to 1000 nM | – | – | –
CC(C)c1nc(-c2cccc(NS(=O)(=O)c3c(F)cccc3F)n2)c(-c2ccnc(Nc3ccc(N4CCOCC4)nc3)n2)s1 [Example 44] | < 100 nM | > 1000 nM | > 1000 nM | < 100 nM | 100 to 1000 nM | – | – | –
CC(C)c1nc(-c2cncc(NS(=O)(=O)c3c(F)cccc3F)c2)c(-c2ccnc(Nc3ccc(N4CCOCC4)nc3)n2)s1 [Example 47] | < 100 nM | > 1000 nM | > 1000 nM | < 100 nM | < 100 nM | – | – | –
COc1ccc(S(=O)(=O)Nc2cccc(-c3nc(C(C)C)sc3-c3ccnc(Nc4ccc(N5CCOCC5)nc4)n3)c2)cn1 [Example 49] | < 100 nM | > 1000 nM | > 1000 nM | < 100 nM | < 100 nM | – | – | –
CC(C)c1nc(-c2cccc(NS(=O)(=O)c3cccs3)c2)c(-c2ccnc(Nc3ccc(N4CCOCC4)nc3)n2)s1 [Example 51] | < 100 nM | 100 to 1000 nM | > 1000 nM | < 100 nM | < 100 nM | – | – | –
CC(C)c1nc(-c2cccc(NS(=O)(=O)c3cccnc3)c2)c(-c2ccnc(Nc3ccc(N4CCOCC4)nc3)n2)s1 [Example 52] | < 100 nM | 100 to 1000 nM | > 1000 nM | < 100 nM | < 100 nM | – | – | –
CC(C)c1nc(-c2cccc(NS(=O)(=O)c3ccco3)c2)c(-c2ccnc(Nc3ccc(N4CCOCC4)nc3)n2)s1 [Example 53] | < 100 nM | < 100 nM | > 1000 nM | < 100 nM | < 100 nM | – | – | –
CC(=O)N1CCN(c2ccc(Nc3nccc(-c4oc(C(C)C)nc4-c4cccc(NS(=O)(=O)c5c(F)cccc5F)c4)n3)cn2)CC1 [Example 56] | < 100 nM | > 1000 nM | > 1000 nM | < 100 nM | 100 to 1000 nM | – | – | –
CC(C)c1nc(-c2cccc(NS(=O)(=O)c3c(F)cccc3F)c2)c(-c2ccnc(Nc3ccc(N4CCOCC4)c(F)c3)n2)o1 [Example 57] | < 100 nM | 100 to 1000 nM | > 1000 nM | < 100 nM | 100 to 1000 nM | – | – | –
Nc1nc(-c2cccc(NS(=O)(=O)c3c(F)cccc3F)c2)c(-c2ccnc(Nc3ccc(N4CCOCC4)nc3)n2)s1 [Example 62] | < 100 nM | 100 to 1000 nM | > 1000 nM | < 100 nM | < 100 nM | – | – | –
CCNc1nc(-c2cccc(NS(=O)(=O)c3ccccc3)c2)c(-c2ccnc(Nc3ccc(OCCN4CCCC4)c(F)c3)n2)s1 [Example 65] | – | 100 to 1000 nM | – | – | 100 to 1000 nM | < 100 nM | > 1000 nM | 100 to 1000 nM
CC(=O)N1CCN(c2ccc(Nc3nccc(-c4sc(C(C)C)nc4-c4cccc(NS(=O)(=O)c5cccc(C(F)(F)F)c5)c4)n3)cn2)CC1 [Example 70] | 100 to 1000 nM | > 1000 nM | > 1000 nM | 100 to 1000 nM | 100 to 1000 nM | – | – | –
CC(C)c1nc(-c2ccc(F)c(NS(=O)(=O)c3c(F)cccc3F)c2)c(-c2ccnc(Nc3ccc(N4CCN5CCOC[C@H]5C4)nc3)n2)s1 [Example 97] | < 100 nM | > 1000 nM | > 1000 nM | < 100 nM | < 100 nM | – | – | –
